Literature values in US20160310431A1, “Three-Phase System for Modified Release of a Non-Steroidal Antiinflammatory” (priority 2013, published 2016).
Where two headings read alike, the source gives them in different places.

Columns and labels:
[1] = intramuscular administration
[2] = test system: COX-1 and COX-2; details: COX-1 vs COX-2
[3] = test system: plasma proteins
[4] = not given; remark: listed apart in the source
[5] = intramuscular administration, single dose of 30 mg

In the case of `O=C(c1ccccc1)c1ccc2n1CCC2C(=O)O` (centres unmarked) [Ketorolac tromethamine], the “appearance of analgesic effect” value [1] is given as “first half hour”, the “duration of analgesic effect” value [1] is given as 4 to 6 h and the “peak of analgesic effect” value [1] is given as 1 to 2 h. For the same compound, the maximum plasma concentration [5] was 2.2 µg/mL, the “time at which maximum plasma concentration appears” value (from here on “time”) [5] was 50 min and the “time” value (intravenous administration) was 5.4 min. The “time” value (oral administration, tablets or capsules) was 180 min and the absorption (orally and parenterally) was “rapidly and completely absorbed”.

For `O=C(c1ccccc1)c1ccc2n1CCC2C(=O)O` (centres unmarked) [Ketorolac], the “selectivity for COX isoforms” value [2] is listed as “not being selective for any of the isoforms”, the “binding to plasma proteins” value [3] is listed as 99% and the “metabolized via the liver by conjugation” value ([4]; inactive metabolites) is listed as 21%. For the same compound, the “excreted as a conjugated metabolite” value ([4]; renal excretion) was 21.9%, the “excreted as the drug without changes” value ([4]; renal excretion) was 60.2% and the excreted hydroxylated ([4]; renal excretion) was 11.5%.
